This passage reports Drug transport, Km and Vmax results from ChEMBL document CHEMBL3526030, “Transport of the coumarin metabolite 7-hydroxycoumarin glucuronide is mediated via multidrug resistance-associated proteins 3 and 4” (Drug Metab Dispos, 2012).

Data set [1] addresses Multidrug resistance-associated protein 1 (Homo sapiens, UniProt P33527). The data set is described as follows: Activity at MRP1 (unknown origin) expressed in baculovirus-infected HEK293 cells assessed as drug transport at 400 uM after 10 mins by reversed-phase HPLC analysis in presence of ATP. In kind it is ADME. To be noted: hek293, 10 min, BLD = below limit of detection.

In data set [2] the target is ATP-binding cassette sub-family C member 2 (Homo sapiens, UniProt Q92887). The data set is described as follows: Activity at MRP2 (unknown origin) expressed in baculovirus-infected HEK293 cells assessed as drug transport at 400 uM after 10 mins by reversed-phase HPLC analysis in presence of ATP. In kind it is ADME. As to conditions: hek293, 10 min, BLD = below limit of detection.

Data set [3] has as its target ATP-binding cassette sub-family C member 3 (Homo sapiens, UniProt O15438). The data set is described as follows: Activity at MRP3 (unknown origin) expressed in baculovirus-infected HEK293 cells assessed as drug transport at 400 uM after 10 mins by reversed-phase HPLC analysis in presence of ATP. The format is ADME. As to conditions: hek293, 10 min, BLD = below limit of detection.

In data set [4] the target is T1, ATP-binding cassette sub-family C member 4 (Homo sapiens, UniProt O15439).
T1 sequence (O15439 whole entry): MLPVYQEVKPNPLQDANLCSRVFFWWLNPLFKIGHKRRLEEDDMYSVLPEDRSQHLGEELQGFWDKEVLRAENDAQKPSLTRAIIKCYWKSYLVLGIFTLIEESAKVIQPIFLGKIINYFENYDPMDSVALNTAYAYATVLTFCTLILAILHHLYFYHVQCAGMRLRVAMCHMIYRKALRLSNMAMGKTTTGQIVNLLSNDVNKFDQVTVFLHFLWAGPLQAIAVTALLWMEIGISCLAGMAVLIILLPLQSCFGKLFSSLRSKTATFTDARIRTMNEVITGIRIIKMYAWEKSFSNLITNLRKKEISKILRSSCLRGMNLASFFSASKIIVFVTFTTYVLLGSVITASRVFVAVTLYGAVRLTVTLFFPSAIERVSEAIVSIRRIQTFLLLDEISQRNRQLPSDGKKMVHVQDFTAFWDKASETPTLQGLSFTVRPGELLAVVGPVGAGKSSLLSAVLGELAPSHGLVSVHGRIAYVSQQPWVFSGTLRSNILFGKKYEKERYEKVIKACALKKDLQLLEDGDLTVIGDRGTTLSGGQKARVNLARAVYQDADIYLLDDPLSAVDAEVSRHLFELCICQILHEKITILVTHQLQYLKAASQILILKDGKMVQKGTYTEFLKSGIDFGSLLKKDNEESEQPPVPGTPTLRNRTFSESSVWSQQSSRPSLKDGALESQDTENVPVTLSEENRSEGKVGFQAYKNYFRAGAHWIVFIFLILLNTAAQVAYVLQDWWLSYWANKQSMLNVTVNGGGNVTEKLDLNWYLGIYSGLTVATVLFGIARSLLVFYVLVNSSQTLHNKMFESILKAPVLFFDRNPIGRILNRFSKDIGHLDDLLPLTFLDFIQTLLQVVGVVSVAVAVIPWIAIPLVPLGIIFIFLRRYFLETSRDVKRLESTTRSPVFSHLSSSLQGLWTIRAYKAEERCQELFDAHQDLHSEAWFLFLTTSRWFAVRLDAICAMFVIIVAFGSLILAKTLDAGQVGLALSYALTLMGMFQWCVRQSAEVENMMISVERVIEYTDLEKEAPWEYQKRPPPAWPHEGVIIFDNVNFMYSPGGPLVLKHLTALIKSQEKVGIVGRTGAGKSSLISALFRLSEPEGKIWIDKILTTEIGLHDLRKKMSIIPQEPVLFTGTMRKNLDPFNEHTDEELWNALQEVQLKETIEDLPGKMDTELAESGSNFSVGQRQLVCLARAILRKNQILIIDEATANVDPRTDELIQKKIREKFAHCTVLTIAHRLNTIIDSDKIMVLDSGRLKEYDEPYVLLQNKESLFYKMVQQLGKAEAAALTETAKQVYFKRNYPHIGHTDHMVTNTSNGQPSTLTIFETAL
Briefly: Activity at MRP4 (unknown origin) expressed in baculovirus-infected HEK293 cells assessed as drug transport at 400 uM after 10 mins by reversed-phase HPLC analysis in presence of ATP. To be noted: hek293, 10 min, BLD = below limit of detection. In kind it is ADME.

Data set [5] deals with T2, Broad substrate specificity ATP-binding cassette transporter ABCG2 (Homo sapiens, UniProt Q9UNQ0).
T2 sequence (Q9UNQ0 whole entry): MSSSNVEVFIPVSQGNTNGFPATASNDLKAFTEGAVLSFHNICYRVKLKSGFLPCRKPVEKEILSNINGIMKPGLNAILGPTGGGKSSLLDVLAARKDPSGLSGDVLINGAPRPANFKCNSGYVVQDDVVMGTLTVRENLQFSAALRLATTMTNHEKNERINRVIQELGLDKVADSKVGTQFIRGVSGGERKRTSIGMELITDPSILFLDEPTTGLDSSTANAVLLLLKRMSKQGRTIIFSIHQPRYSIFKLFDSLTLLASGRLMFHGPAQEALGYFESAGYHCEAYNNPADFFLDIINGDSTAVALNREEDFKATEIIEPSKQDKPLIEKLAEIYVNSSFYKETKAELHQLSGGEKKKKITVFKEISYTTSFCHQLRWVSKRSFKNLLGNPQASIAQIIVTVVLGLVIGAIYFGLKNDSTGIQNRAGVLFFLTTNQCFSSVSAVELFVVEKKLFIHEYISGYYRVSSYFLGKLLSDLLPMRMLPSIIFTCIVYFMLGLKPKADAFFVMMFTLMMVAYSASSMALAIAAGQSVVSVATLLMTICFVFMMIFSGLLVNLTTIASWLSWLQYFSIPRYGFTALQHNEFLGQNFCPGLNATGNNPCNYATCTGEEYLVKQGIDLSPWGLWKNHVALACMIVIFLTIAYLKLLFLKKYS
The data set is described as follows: Activity at BCRP (unknown origin) expressed in baculovirus-infected HEK293 cells assessed as drug transport at 400 uM after 10 mins by reversed-phase HPLC analysis in presence of ATP. In kind it is ADME. As to conditions: hek293, 10 min, BLD = below limit of detection.

Data set [6] in a line: Activity at P-gp (unknown origin) expressed in baculovirus-infected HEK293 cells assessed as drug transport at 400 uM after 10 mins by reversed-phase HPLC analysis in presence of ATP. The format is ADME. As to conditions: human, hek293, 10 min, BLD = below limit of detection.
Substrate in data set [7]: O=C(O)[C@H]1O[C@@H](Oc2ccc3ccc(=O)oc3c2)[C@H](O)[C@@H](O)[C@@H]1O
Briefly: Activity at MRP3 (unknown origin) expressed in baculovirus-infected HEK293 cells assessed as drug transport after 10 mins by Michaelis-Menten plot analysis. The format is ADME, Homo sapiens.

Substrate in data set [8]: O=C(O)[C@H]1O[C@@H](Oc2ccc3ccc(=O)oc3c2)[C@H](O)[C@@H](O)[C@@H]1O
Briefly: Activity at MRP4 (unknown origin) expressed in baculovirus-infected HEK293 cells assessed as drug transport after 10 mins by Michaelis-Menten plot analysis. In kind it is ADME, Homo sapiens.

Chain of ATP-binding cassette sub-family C member 2 (Q92887 whole entry): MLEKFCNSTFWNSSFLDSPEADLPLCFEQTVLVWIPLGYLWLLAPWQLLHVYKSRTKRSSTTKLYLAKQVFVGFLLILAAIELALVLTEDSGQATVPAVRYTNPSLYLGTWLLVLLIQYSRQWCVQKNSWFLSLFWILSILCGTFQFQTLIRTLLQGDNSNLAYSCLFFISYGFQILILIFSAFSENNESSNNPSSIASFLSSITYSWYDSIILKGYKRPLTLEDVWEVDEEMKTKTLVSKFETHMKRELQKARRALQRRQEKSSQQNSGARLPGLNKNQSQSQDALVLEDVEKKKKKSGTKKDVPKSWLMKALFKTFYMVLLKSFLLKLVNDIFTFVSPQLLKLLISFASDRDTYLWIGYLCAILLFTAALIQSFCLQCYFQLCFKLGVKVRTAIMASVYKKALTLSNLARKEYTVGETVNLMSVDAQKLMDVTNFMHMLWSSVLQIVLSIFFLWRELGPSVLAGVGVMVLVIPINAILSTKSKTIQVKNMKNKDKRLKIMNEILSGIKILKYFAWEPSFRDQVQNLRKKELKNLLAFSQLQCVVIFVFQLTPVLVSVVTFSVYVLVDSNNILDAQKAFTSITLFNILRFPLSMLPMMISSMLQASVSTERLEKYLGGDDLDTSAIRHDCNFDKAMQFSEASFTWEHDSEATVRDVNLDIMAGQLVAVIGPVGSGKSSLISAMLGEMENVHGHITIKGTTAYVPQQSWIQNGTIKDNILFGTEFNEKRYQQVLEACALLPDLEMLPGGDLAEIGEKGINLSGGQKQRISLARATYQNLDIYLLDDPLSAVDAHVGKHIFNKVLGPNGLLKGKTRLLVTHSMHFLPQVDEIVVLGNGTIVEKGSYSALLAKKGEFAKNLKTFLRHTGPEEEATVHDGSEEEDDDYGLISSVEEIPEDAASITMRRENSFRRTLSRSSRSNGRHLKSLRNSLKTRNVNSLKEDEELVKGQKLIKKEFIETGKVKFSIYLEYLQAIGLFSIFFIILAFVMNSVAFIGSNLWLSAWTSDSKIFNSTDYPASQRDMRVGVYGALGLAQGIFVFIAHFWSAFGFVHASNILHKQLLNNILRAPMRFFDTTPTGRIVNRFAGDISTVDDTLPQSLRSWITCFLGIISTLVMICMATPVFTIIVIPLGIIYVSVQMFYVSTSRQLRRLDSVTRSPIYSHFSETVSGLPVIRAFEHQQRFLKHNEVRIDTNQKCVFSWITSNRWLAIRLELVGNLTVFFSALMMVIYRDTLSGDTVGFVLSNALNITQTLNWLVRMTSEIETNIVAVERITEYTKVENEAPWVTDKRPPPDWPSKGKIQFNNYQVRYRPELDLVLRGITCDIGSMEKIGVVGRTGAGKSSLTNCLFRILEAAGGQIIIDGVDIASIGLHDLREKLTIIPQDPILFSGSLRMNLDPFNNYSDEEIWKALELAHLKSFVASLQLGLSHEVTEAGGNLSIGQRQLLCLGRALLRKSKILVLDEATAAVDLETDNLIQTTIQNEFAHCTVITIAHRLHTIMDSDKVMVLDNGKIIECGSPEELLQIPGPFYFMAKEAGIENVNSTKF
Chain of Multidrug resistance-associated protein 1 (P33527 whole entry): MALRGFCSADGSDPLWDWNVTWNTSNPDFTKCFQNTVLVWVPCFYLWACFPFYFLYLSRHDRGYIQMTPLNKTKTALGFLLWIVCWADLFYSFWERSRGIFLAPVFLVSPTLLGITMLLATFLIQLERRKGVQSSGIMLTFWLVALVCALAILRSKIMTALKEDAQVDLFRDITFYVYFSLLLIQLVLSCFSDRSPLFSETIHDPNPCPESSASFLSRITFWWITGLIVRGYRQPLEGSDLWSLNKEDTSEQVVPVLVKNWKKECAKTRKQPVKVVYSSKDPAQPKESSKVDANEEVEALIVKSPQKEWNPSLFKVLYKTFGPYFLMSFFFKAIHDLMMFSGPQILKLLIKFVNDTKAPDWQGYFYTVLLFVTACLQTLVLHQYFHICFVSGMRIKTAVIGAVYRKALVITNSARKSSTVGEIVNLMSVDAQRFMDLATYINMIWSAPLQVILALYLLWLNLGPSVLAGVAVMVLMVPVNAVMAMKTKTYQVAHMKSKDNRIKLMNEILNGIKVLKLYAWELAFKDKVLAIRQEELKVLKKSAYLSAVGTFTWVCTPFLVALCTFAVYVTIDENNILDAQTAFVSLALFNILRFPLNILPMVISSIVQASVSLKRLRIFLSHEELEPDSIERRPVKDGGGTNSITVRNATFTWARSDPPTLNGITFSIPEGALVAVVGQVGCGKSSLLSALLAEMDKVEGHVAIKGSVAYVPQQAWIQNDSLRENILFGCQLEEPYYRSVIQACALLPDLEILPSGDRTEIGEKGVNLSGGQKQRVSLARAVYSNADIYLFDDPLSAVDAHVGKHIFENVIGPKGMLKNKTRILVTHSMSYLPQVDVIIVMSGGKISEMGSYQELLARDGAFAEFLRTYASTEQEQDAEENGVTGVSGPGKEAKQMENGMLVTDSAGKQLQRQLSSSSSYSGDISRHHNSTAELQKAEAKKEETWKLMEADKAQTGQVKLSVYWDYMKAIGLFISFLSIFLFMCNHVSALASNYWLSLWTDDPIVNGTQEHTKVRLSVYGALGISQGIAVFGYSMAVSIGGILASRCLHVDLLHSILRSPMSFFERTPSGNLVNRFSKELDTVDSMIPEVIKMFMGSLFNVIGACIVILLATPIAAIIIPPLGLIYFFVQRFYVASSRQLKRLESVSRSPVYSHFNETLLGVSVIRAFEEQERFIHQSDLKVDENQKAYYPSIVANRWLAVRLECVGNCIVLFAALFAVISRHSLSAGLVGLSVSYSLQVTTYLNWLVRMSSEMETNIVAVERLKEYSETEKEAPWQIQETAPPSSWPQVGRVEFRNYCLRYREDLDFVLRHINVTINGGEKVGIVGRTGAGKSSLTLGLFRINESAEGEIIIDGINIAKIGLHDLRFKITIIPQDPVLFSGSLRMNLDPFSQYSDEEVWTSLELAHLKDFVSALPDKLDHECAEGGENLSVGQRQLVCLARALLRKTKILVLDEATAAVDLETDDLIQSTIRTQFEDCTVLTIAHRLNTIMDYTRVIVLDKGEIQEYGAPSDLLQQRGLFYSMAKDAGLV

Consider `O=c1ccc2ccc(O)cc2o1` [UMBELLIFERONE], for which the Drug transport entry in data set [1], in data set [2], in data set [3], in data set [4], in data set [5] and in data set [6] was “BLD” throughout.

B1: ATP-binding cassette sub-family C member 3 (Homo sapiens) (protein)
chain: MDALCGSGELGSKFWDSNLSVHTENPDLTPCFQNSLLAWVPCIYLWVALPCYLLYLRHHCRGYIILSHLSKLKMVLGVLLWCVSWADLFYSFHGLVHGRAPAPVFFVTPLVVGVTMLLATLLIQYERLQGVQSSGVLIIFWFLCVVCAIVPFRSKILLAKAEGEISDPFRFTTFYIHFALVLSALILACFREKPPFFSAKNVDPNPYPETSAGFLSRLFFWWFTKMAIYGYRHPLEEKDLWSLKEEDRSQMVVQQLLEAWRKQEKQTARHKASAAPGKNASGEDEVLLGARPRPRKPSFLKALLATFGSSFLISACFKLIQDLLSFINPQLLSILIRFISNPMAPSWWGFLVAGLMFLCSMMQSLILQHYYHYIFVTGVKFRTGIMGVIYRKALVITNSVKRASTVGEIVNLMSVDAQRFMDLAPFLNLLWSAPLQIILAIYFLWQNLGPSVLAGVAFMVLLIPLNGAVAVKMRAFQVKQMKLKDSRIKLMSEILNGIKVLKLYAWEPSFLKQVEGIRQGELQLLRTAAYLHTTTTFTWMCSPFLVTLITLWVYVYVDPNNVLDAEKAFVSVSLFNILRLPLNMLPQLISNLTQASVSLKRIQQFLSQEELDPQSVERKTISPGYAITIHSGTFTWAQDLPPTLHSLDIQVPKGALVAVVGPVGCGKSSLVSALLGEMEKLEGKVHMKGSVAYVPQQAWIQNCTLQENVLFGKALNPKRYQQTLEACALLADLEMLPGGDQTEIGEKGINLSGGQRQRVSLARAVYSDADIFLLDDPLSAVDSHVAKHIFDHVIGPEGVLAGKTRVLVTHGISFLPQTDFIIVLADGQVSEMGPYPALLQRNGSFANFLCNYAPDEDQGHLEDSWTALEGAEDKEALLIEDTLSNHTDLTDNDPVTYVVQKQFMRQLSALSSDGEGQGRPVPRRHLGPSEKVQVTEAKADGALTQEEKAAIGTVELSVFWDYAKAVGLCTTLAICLLYVGQSAAAIGANVWLSAWTNDAMADSRQNNTSLRLGVYAALGILQGFLVMLAAMAMAAGGIQAARVLHQALLHNKIRSPQSFFDTTPSGRILNCFSKDIYVVDEVLAPVILMLLNSFFNAISTLVVIMASTPLFTVVILPLAVLYTLVQRFYAATSRQLKRLESVSRSPIYSHFSETVTGASVIRAYNRSRDFEIISDTKVDANQRSCYPYIISNRWLSIGVEFVGNCVVLFAALFAVIGRSSLNPGLVGLSVSYSLQVTFALNWMIRMMSDLESNIVAVERVKEYSKTETEAPWVVEGSRPPEGWPPRGEVEFRNYSVRYRPGLDLVLRDLSLHVHGGEKVGIVGRTGAGKSSMTLCLFRILEAAKGEIRIDGLNVADIGLHDLRSQLTIIPQDPILFSGTLRMNLDPFGSYSEEDIWWALELSHLHTFVSSQPAGLDFQCSEGGENLSVGQRQLVCLARALLRKSRILVLDEATAAIDLETDNLIQATIRTQFDTCTVLTIAHRLNTIMDYTRVLVLDKGVVAEFDSPANLIAARGIFYGMARDAGLA
By Km is commonly meant the concentration of substrate that gives half-maximal velocity. Usually Vmax stands for the rate approached at saturating substrate. For B1, in data set [7], the Km was 187 µM and the Vmax amounted to 0.00046 µmol/min/mg.

B2: ATP-binding cassette sub-family C member 4 (Homo sapiens) (protein)
chain: T1 sequence (O15439 whole entry)
With B2, in data set [8], the Km worked out at 63 µM and the Vmax worked out at 0.00092 µmol/min/mg.
